The structures appear in SMILES notation.

The test deals with T1, hSTING (Homo sapiens, UniProt Q86WV6, G230A/H232R/R293Q/R71H).
T1 construct: host or cells: THP1-Dual KO-IFNAR2 cells
T1 sequence (Q86WV6 whole entry R71H/G230A/H232R/R293Q): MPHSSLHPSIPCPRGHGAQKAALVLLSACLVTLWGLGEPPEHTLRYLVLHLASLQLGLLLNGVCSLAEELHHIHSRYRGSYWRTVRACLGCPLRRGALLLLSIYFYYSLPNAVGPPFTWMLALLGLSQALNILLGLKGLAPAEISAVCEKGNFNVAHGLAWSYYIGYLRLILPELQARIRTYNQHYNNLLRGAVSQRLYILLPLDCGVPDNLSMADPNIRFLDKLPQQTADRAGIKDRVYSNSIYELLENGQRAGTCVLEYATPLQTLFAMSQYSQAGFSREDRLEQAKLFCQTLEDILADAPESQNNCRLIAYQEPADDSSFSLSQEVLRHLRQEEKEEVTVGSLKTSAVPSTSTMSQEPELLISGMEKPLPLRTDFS
Description: STING reporter assay (luciferase) in THP1-Dual KO-IFNAR2 cells activated with 2'3'cGAMP. The class given is cell-based. The conditions noted are these: 15 μM 2'3'cGAMP, 24 h. Here is the method: STING pathway activation by the compounds described herein was measured using THP1-Dual™ cells (KO-IFNAR2).
THP1-Dual™ KO-IFNAR2 Cells (obtained from invivogen) were maintained in RPMI, 10% FCS, 5 ml P/S, 2 mM L-glut, 10 mM Hepes, and 1 mM sodium pyruvate. Compounds were spotted in empty 384 well tissue culture plates (Greiner 781182) by Echo for a final concentration of 0.0017-100 μM. Cells were plated into the TC plates at 40 μL per well, 2×10E6 cells/mL. For activation with STING ligand, 2′3′cGAMP (MW 718.38, obtained from Invivogen), was prepared in Optimem media.
The following solutions were prepared for each 1×384 plate: • Solution A: 2 mL Optimem with one of the following stimuli: • 60 μL of 10 mM 2′3′cGAMP 4 150 μM stock • Solution B: 2 mL Optimem with 60 μL Lipofectamine 2000 4 Incubate 5 min at RT
2 mL of solution A and 2 ml Solution B was mixed and incubated for 20 min at room temperature (RT). 20 μL of transfection solution (A+B) was added on top of the plated cells, with a final 2′3′cGAMP concentration of 15 μM. The plates were then centrifuged immediately at 340 g for 1 minute, after which they were incubated at 37° C., 5% CO2, >98% humidity for 24 h. Luciferase reporter activity was then measured. EC50 values were calculated by using standard methods known in the art.
Luciferase reporter assay: 10 μL of supernatant from the assay was transferred to white 384-plate with flat bottom and squared wells. One pouch of QUANTI-Luc™ Plus was dissolved in 25 mL of water. 100 μL of QLC Stabilizer per 25 mL of QUANTI-Luc™ Plus solution was added. 50 μL of QUANTI-Luc™ Plus/QLC solution per well was then added. Luminescence was measured on a Platereader (e.g., Spectramax I3X (Molecular Devices GF3637001)).
Luciferase reporter activity was then measured. EC50 values were calculated by using standard methods known in the art.
In general terms: Reporter assays use an easily measured gene product as a stand-in for the process of interest.
Usually EC50 stands for the midpoint of the concentration-response curve. Read a low EC50 as greater potency. Take `CC(C)(C)OC(=O)N1CCCC(c2ccc3[nH]c(Nc4cc(Cl)c5cc[nH]c5c4)nc3c2)C1` (stereo not drawn) [Compound 151, tert-butyl 3-{2-[(4-chloro-1H-indol-6-yl)amino]-1H-1,3-benzodiazol-5-yl}piperidine-1-carboxylate]: the EC50 fell in the range of 0.2 to 1 µM.
As for `CC(=O)N1CCC(c2ccc3[nH]c(Nc4cc(Cl)c5cc[nH]c5c4)nc3c2)CC1` [Compound 152, 1-(4-{2-[(4-chloro-1H-indol-6-yl)amino]-1H-1,3-benzodiazol-5-yl}piperidin-1-yl)ethan-1-one], the EC50 was in the range of 1 to 5 µM.
For the compound `FC(F)(F)CN1CCC(c2ccc3[nH]c(Nc4cc(Cl)c5cc[nH]c5c4)nc3c2)CC1` [Compound 153, N-(4-chloro-1H-indol-6-yl)-5-[1-(2,2,2-trifluoroethyl)piperidin-4-yl]-1H-1,3-benzodiazol-2-amine], the EC50 lay in the range of 0.2 to 1 µM.
In the case of `Clc1cc(Nc2nc3cc(C4CCOC4)ccc3[nH]2)cc2[nH]ccc12` (stereo not drawn) [Compound 154, N-(4-chloro-1H-indol-6-yl)-5-(oxolan-3-yl)-1H-1,3-benzodiazol-2-amine], the EC50 fell in the range of 0.2 to 1 µM.
The compound `CC(C)n1cc(-c2ccc3[nH]c(Nc4cc(Cl)c5cc[nH]c5c4)nc3c2)cn1` [Compound 155, N-(4-chloro-1H-indol-6-yl)-5-[1-(propan-2-yl)-1H-pyrazol-4-yl]-1H-1,3-benzodiazol-2-amine] returned an EC50 of 0.2 to 1 µM.
Compound `Clc1cc(Nc2nc3cc(-c4cnn(CC5CC5)c4)ccc3[nH]2)cc2[nH]ccc12` [Compound 156, N-(4-chloro-1H-indol-6-yl)-5-[1-(cyclopropylmethyl)-1H-pyrazol-4-yl]-1H-1,3-benzodiazol-2-amine] came in with an EC50 of 0.2 to 1 µM.
Consider `COCCn1cc(-c2ccc3[nH]c(Nc4cc(Cl)c5cc[nH]c5c4)nc3c2)cn1` [Compound 158, N-(4-chloro-1H-indol-6-yl)-5-[1-(2-methoxyethyl)-1H-pyrazol-4-yl]-1H-1,3-benzodiazol-2-amine], for which the EC50 fell in the range of 0.2 to 1 µM.
In the case of `Clc1cc(Nc2nc3cc(-c4cnn(C5CCOCC5)c4)ccc3[nH]2)cc2[nH]ccc12` [Compound 159, N-(4-chloro-1H-indol-6-yl)-5-[1-(oxan-4-yl)-1H-pyrazol-4-yl]-1H-1,3-benzodiazol-2-amine] it was 0.2 to 1 µM; in that of `CN1CCC(c2ccc3[nH]c(Nc4cc(Cl)c5cc[nH]c5c4)nc3c2)CC1` [Compound 160, N-(4-chloro-1H-indol-6-yl)-5-(1-methylpiperidin-4-yl)-1H-1,3-benzodiazol-2-amine], 5 to 100 µM; in that of `Clc1cc(Nc2nc3cc(C4CCOCC4)ccc3[nH]2)cc2[nH]ccc12` [Compound 161, N-(4-chloro-1H-indol-6-yl)-5-(oxan-4-yl)-1H-1,3-benzodiazol-2-amine], 0.2 to 1 µM.
In the case of `CC(C)(C)OC(=O)N1CCC(c2ccc3[nH]c(Nc4cc(Cl)c5cc[nH]c5c4)nc3c2)CC1` [Compound 162, tert-butyl 4-{2-[(4-chloro-1H-indol-6-yl)amino]-1H-1,3-benzodiazol-5-yl}piperidine-1-carboxylate] it was 0.2 to 1 µM.
As for `FC(F)n1cc(-c2ccc3[nH]c(Nc4cc(Cl)c5cc[nH]c5c4)nc3c2)cn1` [Compound 163, N-(4-chloro-1H-indol-6-yl)-5-[1-(difluoromethyl)-1H-pyrazol-4-yl]-1H-1,3-benzodiazol-2-amine], the concentration for a half-maximal effect (EC50) was in the range of 0.2 to 1 µM.
Compound `Clc1cc(Nc2nc3cc(-c4cnn(-c5ccccc5)c4)ccc3[nH]2)cc2[nH]ccc12` [Compound 164, N-(4-chloro-1H-indol-6-yl)-5-(1-phenyl-1H-pyrazol-4-yl)-1H-1,3-benzodiazol-2-amine] registered an EC50 of 0.2 to 1 µM.
In turn, `CC(C)CCc1ccc2[nH]c(Nc3cc(Cl)c4cc[nH]c4c3)nc2c1` [Compound 165, N-(4-chloro-1H-indol-6-yl)-5-(3-methylbutyl)-1H-1,3-benzodiazol-2-amine] came in with an EC50 of 0.2 to 1 µM.
Take `CC(C)(O)c1ccc(-c2ccc3[nH]c(Nc4cc(Cl)c5cc[nH]c5c4)nc3c2)cc1` [Compound 166, 2-(4-{2-[(4-chloro-1H-indol-6-yl)amino]-1H-1,3-benzodiazol-5-yl}phenyl)propan-2-ol]: the EC50 lay within 0.2 to 1 µM.
As for `N#Cc1cncc(-c2ccc3[nH]c(Nc4cc(Cl)c5cc[nH]c5c4)nc3c2)c1` [Compound 167, 5-{2-[(4-chloro-1H-indol-6-yl)amino]-1H-1,3-benzodiazol-5-yl}pyridine-3-carbonitrile], the EC50 fell in the range of 0.2 to 1 µM.
In the case of `Clc1cc(Nc2nc3cc(C4CCCCC4)ccc3[nH]2)cc2[nH]ccc12` [Compound 168, N-(4-chloro-1H-indol-6-yl)-5-cyclohexyl-1H-1,3-benzodiazol-2-amine] it was 0.2 to 1 µM.
The compound `COCc1cccc(-c2ccc3[nH]c(Nc4cc(Cl)c5cc[nH]c5c4)nc3c2)c1` [Compound 169, N-(4-chloro-1H-indol-6-yl)-5-[3-(methoxymethyl)phenyl]-1H-1,3-benzodiazol-2-amine] registered an EC50 of 0.2 to 1 µM.
In the case of `FC(F)(F)Oc1ccc(-c2ccc3[nH]c(Nc4cc(Cl)c5cc[nH]c5c4)nc3c2)cc1` [Compound 170, N-(4-chloro-1H-indol-6-yl)-5-[4-(trifluoromethoxy)phenyl]-1H-1,3-benzodiazol-2-amine] it was 0.2 to 1 µM; in that of `CS(=O)(=O)N1CCC(c2ccc3[nH]c(Nc4cc(Cl)c5cc[nH]c5c4)nc3c2)CC1` [Compound 171, N-(4-chloro-1H-indol-6-yl)-5-(1-methanesulfonylpiperidin-4-yl)-1H-1,3-benzodiazol-2-amine], 0.2 to 1 µM.
In turn, `O=C(C1CC1)N1CCC(c2ccc3[nH]c(Nc4cc(Cl)c5cc[nH]c5c4)nc3c2)CC1` [Compound 172, N-(4-chloro-1H-indol-6-yl)-5-(1-cyclopropanecarbonylpiperidin-4-yl)-1H-1,3-benzodiazol-2-amine] returned an EC50 of 0.2 to 1 µM.
In turn, `CC(C)(O)CCc1ccc2[nH]c(Nc3cc(Cl)c4cc[nH]c4c3)nc2c1` [Compound 173, 4-{2-[(4-chloro-1H-indol-6-yl)amino]-1H-1,3-benzodiazol-5-yl}-2-methylbutan-2-ol] gave an EC50 of 0.2 to 1 µM.
To `Fc1c[nH]c2cc(Nc3nc4cc(Cl)c(Cl)cc4[nH]3)ccc12` [Compound 174, 5,6-dichloro-N-(3-fluoro-1H-indol-6-yl)-1H-1,3-benzodiazol-2-amine] belongs 0.04 to 0.2 µM.
In the case of `Fc1c[nH]c2cc(Nc3nc4cc(C(F)(F)F)ccc4[nH]3)ccc12` [Compound 175, N-(3-fluoro-1H-indol-6-yl)-5-(trifluoromethyl)-1H-1,3-benzodiazol-2-amine], the EC50 lay within 0.04 to 0.2 µM.
